Experimental data: paper PMC10008561 (Nature Communications, 2023)

Legend:
Experiment in all cases: cell-based
human KOR (GoB) [1] = target: T1, human KOR (GoB) (Homo sapiens, UniProt P41145)
T1 construct: expressed in transfected cells; host or cells: HEK293T

human KOR (GoB) [2] = target: T2, human KOR (GoB) (Homo sapiens, UniProt P41145, D105A); conditions: HEK-293T
T2 construct: expressed in transfected cells; host or cells: HEK293T

human KOR (GoB) [3] = target: T3, human KOR (GoB) (Homo sapiens, UniProt P41145, D155A); conditions: HEK-293T
T3 construct: expressed in transfected cells; host or cells: HEK293T
T3 sequence (P41145 whole entry D155A): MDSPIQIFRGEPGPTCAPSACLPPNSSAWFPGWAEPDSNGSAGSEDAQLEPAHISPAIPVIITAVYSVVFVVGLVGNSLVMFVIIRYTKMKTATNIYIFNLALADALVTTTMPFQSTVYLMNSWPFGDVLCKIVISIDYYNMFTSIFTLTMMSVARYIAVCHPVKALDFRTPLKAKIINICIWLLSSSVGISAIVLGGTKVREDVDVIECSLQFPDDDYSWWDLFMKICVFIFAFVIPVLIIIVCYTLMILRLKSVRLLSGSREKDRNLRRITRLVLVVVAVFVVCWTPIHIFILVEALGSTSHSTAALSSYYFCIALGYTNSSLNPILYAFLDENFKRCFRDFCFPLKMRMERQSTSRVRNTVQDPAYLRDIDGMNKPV

human KOR (GoB) [4] = target: T4, human KOR (GoB) (Homo sapiens, UniProt P41145, D334A); conditions: HEK-293T
T4 construct: expressed in transfected cells; host or cells: HEK293T
T4 sequence (P41145 whole entry D334A): as the sequence (P41145 whole entry D155A) above, with A155D, D334A counted along it

human KOR (GoB) [5] = target: T5, human KOR (GoB) (Homo sapiens, UniProt P41145, E297A); conditions: HEK-293T
T5 construct: expressed in transfected cells; host or cells: HEK293T
T5 sequence (P41145 whole entry E297A): as the sequence (P41145 whole entry D155A) above, with A155D, E297A counted along it

human KOR (GoB) [6] = target: T6, human KOR (GoB) (Homo sapiens, UniProt P41145, F114L); conditions: HEK-293T
T6 construct: expressed in transfected cells; host or cells: HEK293T
T6 sequence (P41145 whole entry F114L): as the sequence (P41145 whole entry D155A) above, with F114L, A155D counted along it

human KOR (GoB) [7] = target: T7, human KOR (GoB) (Homo sapiens, UniProt P41145, F283A); conditions: HEK-293T
T7 construct: expressed in transfected cells; host or cells: HEK293T
T7 sequence (P41145 whole entry F283A): as the sequence (P41145 whole entry D155A) above, with A155D, F283A counted along it

human KOR (GoB) [8] = target: T8, human KOR (GoB) (Homo sapiens, UniProt P41145, K200A); conditions: HEK-293T
T8 construct: expressed in transfected cells; host or cells: HEK293T
T8 sequence (P41145 whole entry K200A): as the sequence (P41145 whole entry D155A) above, with A155D, K200A counted along it

human KOR (GoB) [9] = target: T9, human KOR (GoB) (Homo sapiens, UniProt P41145, K227A); conditions: HEK-293T
T9 construct: expressed in transfected cells; host or cells: HEK293T
T9 sequence (P41145 whole entry K227A): as the sequence (P41145 whole entry D155A) above, with A155D, K227A counted along it

human KOR (GoB) [10] = target: T10, human KOR (GoB) (Homo sapiens, UniProt P41145, L253A); conditions: HEK-293T
T10 construct: expressed in transfected cells; host or cells: HEK293T
T10 sequence (P41145 whole entry L253A): as the sequence (P41145 whole entry D155A) above, with A155D, L253A counted along it

human KOR (GoB) [11] = target: T11, human KOR (GoB) (Homo sapiens, UniProt P41145, N141A); conditions: HEK-293T
T11 construct: expressed in transfected cells; host or cells: HEK293T
T11 sequence (P41145 whole entry N141A): as the sequence (P41145 whole entry D155A) above, with N141A, A155D counted along it

human KOR (GoB) [12] = target: T12, human KOR (GoB) (Homo sapiens, UniProt P41145, N322A); conditions: HEK-293T
T12 construct: expressed in transfected cells; host or cells: HEK293T
T12 sequence (P41145 whole entry N322A): as the sequence (P41145 whole entry D155A) above, with A155D, N322A counted along it

human KOR (GoB) [13] = target: T13, human KOR (GoB) (Homo sapiens, UniProt P41145, Q115N); conditions: HEK-293T
T13 construct: expressed in transfected cells; host or cells: HEK293T
T13 sequence (P41145 whole entry Q115N): as the sequence (P41145 whole entry D155A) above, with Q115N, A155D counted along it

human KOR (GoB) [14] = target: T14, human KOR (GoB) (Homo sapiens, UniProt P41145, R170A); conditions: HEK-293T
T14 construct: expressed in transfected cells; host or cells: HEK293T
T14 sequence (P41145 whole entry R170A): as the sequence (P41145 whole entry D155A) above, with A155D, R170A counted along it

human KOR (GoB) [15] = target: T15, human KOR (GoB) (Homo sapiens, UniProt P41145, R257A); conditions: HEK-293T
T15 construct: expressed in transfected cells; host or cells: HEK293T
T15 sequence (P41145 whole entry R257A): as the sequence (P41145 whole entry D155A) above, with A155D, R257A counted along it

human KOR (GoB) [16] = target: T16, human KOR (GoB) (Homo sapiens, UniProt P41145, R274A); conditions: HEK-293T
T16 construct: expressed in transfected cells; host or cells: HEK293T
T16 sequence (P41145 whole entry R274A): as the sequence (P41145 whole entry D155A) above, with A155D, R274A counted along it

human KOR (GoB) [17] = target: T17, human KOR (GoB) (Homo sapiens, UniProt P41145, T94V); conditions: HEK-293T
T17 construct: expressed in transfected cells; host or cells: HEK293T
T17 sequence (P41145 whole entry T94V): as the sequence (P41145 whole entry D155A) above, with T94V, A155D counted along it

human KOR (GoB) [18] = target: T18, human KOR (GoB) (Homo sapiens, UniProt P41145, Y320L); conditions: HEK-293T
T18 construct: expressed in transfected cells; host or cells: HEK293T
T18 sequence (P41145 whole entry Y320L): as the sequence (P41145 whole entry D155A) above, with A155D, Y320L counted along it

T1 sequence (P41145 whole entry): as the sequence (P41145 whole entry D155A) above, with A155D counted along it
T2 sequence (P41145 whole entry D105A): as the sequence (P41145 whole entry D155A) above, with D105A, A155D counted along it

CN(C(=O)/C=C/c1ccoc1)[C@@H]1CC[C@@]2(O)[C@H]3Cc4ccc(O)c5c4[C@@]2(CCN3CC2CC2)[C@H]1O5 [Nalfurafine, nalfurafine]
Emax% (human KOR (GoB) [1]): 99.55%
Emax (human KOR (GoB) [1]; HEK-293T): 99.8%
Emax (human KOR (GoB) [2]): 91%
Emax (human KOR (GoB) [3]): 99%
Emax (human KOR (GoB) [4]): 91.1%
Emax (human KOR (GoB) [5]): 103%
Emax (human KOR (GoB) [6]): 77.5%
Emax (human KOR (GoB) [7]): 91%
Emax (human KOR (GoB) [8]): 98.3%
Emax (human KOR (GoB) [9]): 94.3%
Emax (human KOR (GoB) [10]): 107%
Emax (human KOR (GoB) [11]): 98.7%
Emax (human KOR (GoB) [12]): 87.1%
Emax (human KOR (GoB) [13]): 80.5%
Emax (human KOR (GoB) [14]): 87.8%
Emax (human KOR (GoB) [15]): 99.6%
Emax (human KOR (GoB) [16]): 101%
Emax (human KOR (GoB) [17]): 100%
Emax (human KOR (GoB) [18]): 76%
